Assay results: the NIST ThermoML archive (doi:10.1021/je030167i)

Columns and labels:
[1] = xn = mol fraction of the nth substance listed; settings: 101.3 kPa, Liquid
[2] = 101.3 kPa, Liquid

CC1CCCO1 (stereo not given) [2-methyltetrahydrofuran] + CCCCCl
[1]
Settings	kinematic viscosity, 298.15 K [m2/s]	kinematic viscosity, 313.15 K [m2/s]	mass density, 298.15 K [kg/m3]	mass density, 313.15 K [kg/m3]
x2 = 0	5.59e-07	4.92e-07	849.28	834.01
x2 = 0.0494	5.56e-07	4.88e-07	850.97	835.48
x2 = 0.1008	5.52e-07	4.85e-07	852.97	837.19
x2 = 0.203	5.43e-07	4.78e-07	856.41	840.52
x2 = 0.3004	5.35e-07	4.71e-07	859.76	843.74
x2 = 0.3963	5.27e-07	4.64e-07	862.73	846.73
x2 = 0.4969	5.18e-07	4.56e-07	865.86	849.69
x2 = 0.5976	5.09e-07	4.49e-07	869.09	852.75
x2 = 0.6993	5.01e-07	4.41e-07	872.11	855.69
x2 = 0.7993	4.93e-07	4.34e-07	874.9	858.36
x2 = 0.8988	4.85e-07	4.27e-07	878.01	861.05
x2 = 0.9483	4.82e-07	4.24e-07	879.23	862.56

CC(C)(C)Cl [2-chloro-2-methylpropane] + CC1CCCO1
[1], 298.15 K
Settings	kinematic viscosity [m2/s]	mass density [kg/m3]
x1 = 0.0481	5.59e-07	849.09
x1 = 0.0972	5.57e-07	848.97
x1 = 0.196	5.55e-07	848.4
x1 = 0.2907	5.55e-07	847.61
x1 = 0.3874	5.54e-07	846.54
x1 = 0.4878	5.54e-07	845.21
x1 = 0.5888	5.55e-07	843.72
x1 = 0.7	5.57e-07	842.04
x1 = 0.7912	5.59e-07	840.61
x1 = 0.8945	5.62e-07	838.65
x1 = 0.9474	5.63e-07	837.24
x1 = 1	5.66e-07	835.75

CCCCO [butan-1-ol]
[2]
Settings	kinematic viscosity [m2/s]	mass density [kg/m3]
298.15 K	3.19e-06	805.56
313.15 K	2.22e-06	794.19

CC1CCCO1 (stereo not given) [2-methyltetrahydrofuran] + CC(C)CO
[1]
Settings	kinematic viscosity, 298.15 K [m2/s]	kinematic viscosity, 313.15 K [m2/s]	mass density, 298.15 K [kg/m3]	mass density, 313.15 K [kg/m3]
x2 = 0	5.59e-07	4.92e-07	849.28	834.01
x2 = 0.0397	5.85e-07	5.06e-07	847.52	832.15
x2 = 0.0951	6.17e-07	5.31e-07	844.97	829.82
x2 = 0.1999	6.87e-07	5.88e-07	840.08	825.25
x2 = 0.3008	7.77e-07	6.54e-07	835.46	820.88
x2 = 0.3982	8.96e-07	7.47e-07	830.71	816.54
x2 = 0.4988	1.04e-06	8.47e-07	825.72	811.84
x2 = 0.5992	1.26e-06	9.96e-07	820.51	807.01
x2 = 0.7013	1.58e-06	1.22e-06	815.04	801.97
x2 = 0.7995	2.06e-06	1.51e-06	809.54	796.99
x2 = 0.9048	2.93e-06	2.02e-06	803.45	791.39
x2 = 0.9557	3.55e-06	2.36e-06	800.39	788.49

CC1CCCO1 (stereo not given) [2-methyltetrahydrofuran] + CCC(C)Cl
[1], x2 = 0
Settings	kinematic viscosity [m2/s]	mass density [kg/m3]
298.15 K	5.59e-07	849.28
313.15 K	4.92e-07	834.01

CC1CCCO1 (stereo not given) [2-methyltetrahydrofuran] + CC(C)(C)O
[1]
Settings	kinematic viscosity, 298.15 K [m2/s]	kinematic viscosity, 313.15 K [m2/s]	mass density, 298.15 K [kg/m3]	mass density, 313.15 K [kg/m3]
x2 = 0	5.59e-07	4.92e-07	849.28	834.01
x2 = 0.038	5.81e-07	5.04e-07	846.42	831.02
x2 = 0.0906	6.07e-07	5.27e-07	842.39	826.98
x2 = 0.191	6.72e-07	5.73e-07	835.27	819.77
x2 = 0.3192	7.79e-07	6.49e-07	826.46	811.22
x2 = 0.3935	8.66e-07	7.06e-07	821.4	806.46
x2 = 0.4981	1.03e-06	8.15e-07	814.49	799.58
x2 = 0.5918	1.25e-06	9.49e-07	808.4	793.51
x2 = 0.6972	1.67e-06	1.17e-06	801.38	786.72
x2 = 0.7952	2.2e-06	1.47e-06	795.17	780.27
x2 = 0.8989	3.34e-06	1.97e-06	788.08	773.14
x2 = 0.9532	4.37e-06	2.35e-06	784.19	769.08

CC(C)(C)Cl [2-chloro-2-methylpropane]
[2], 298.15 K
Settings	kinematic viscosity [m2/s]	mass density [kg/m3]
–	5.66e-07	835.75

CC(C)(C)O [2-methylpropan-2-ol] + CC1CCCO1
[1], x1 = 1
Settings	kinematic viscosity [m2/s]	mass density [kg/m3]
298.15 K	5.59e-06	780.67
313.15 K	2.74e-06	765.33

CCCCCl [1-chlorobutane] + CC1CCCO1
[1], x1 = 1
Settings	kinematic viscosity [m2/s]	mass density [kg/m3]
298.15 K	4.78e-07	880.62
313.15 K	4.21e-07	863.86

CCCCCl [1-chlorobutane]
[2]
Settings	kinematic viscosity [m2/s]	mass density [kg/m3]
298.15 K	4.78e-07	880.62
313.15 K	4.21e-07	863.86
